Columns and labels:
Arabidopsis thaliana = assay: Evaluation of high temperature resistance 2 (35° C. for 1 hour and 45° C. for 2 hours); format: in vivo; settings: 4th day after high temperature exposure
Method: As a sanguinarine reagent available on the market, a sanguinarine chloride hydrate (S5890-25MG manufactured by Sigma-Aldrich Japan K.K.) was obtained, the sanguinarine chloride hydrate was dissolved in water such that the sanguinarine concentration is 0.2 ppm, 2 ppm, or 20 ppm, and thus a sample liquid for each test plot was respectively prepared. In addition, as a sample liquid for the control plot, a 0.5% DMSO solution was prepared. By using these sample liquids, the following tests were performed.
Seeds of Arabidopsis thaliana were sowed and cultivated in a rockwool cube which had been saturated with a diluent of the HYPONEX (registered trademark) diluted by 1,000 times. The cultivation environment conditions were a cycle of [bright place for 16 hours+dark place for 8 hours], and a temperature of 22° C. On around the strain of Arabidopsis thaliana on the 14th day after the start of cultivation, a sample liquid composed of an aqueous sanguinarine solution that had been adjusted to various concentrations, and a 0.5% DMSO solution for the control plot were respectively applied dropwise using a dropper. The dropping amount was set to 100 μL per a plant body. Therefore, the sanguinarine amount applied per a plant body in each test plot was 0.02 μg in the test plot of 0.2 ppm, 0.2 μg in the test plot of 2 ppm, and 0.002 mg in the test plot of 20 ppm. After the dropping, under the initial cultivation environment conditions, the cultivation was continued for 2 days, then the room temperature was increased to 35° C., and exposure was performed for 1 hour in a bright place. Further, the room temperature was increased to 45° C., and high temperature exposure was performed for 2 hours in a dark place. […]
The state of the grown true leaves of Arabidopsis thaliana on the 4th day after the high temperature exposure under the above conditions was visually evaluated on a four level scale (index, 3: plant death, 2: partial plant death, 1: partial whitening, and 0: normal), and by assigning the values to the following equation, the average degree of damage was calculated. […]

rats = settings: Non Patent Literature 1; cited from earlier work

SMILES: C[n+]1cc2c3c(ccc2c2ccc4cc5c(cc4c21)OCO5)OCO3 [sanguinarine]
- average degree of damage with increasing dosage (Arabidopsis thaliana; 0.2 ppm to 20 ppm, FIG. 4): average degree of damage of Arabidopsis thaliana is reduced
- growth (appearance and average degree of damage) compared with control plot (0.5% DMSO solution) (Arabidopsis thaliana; sanguinarine 0.2 ppm, 2 ppm or 20 ppm, 100 μL per plant body, FIG. 3, FIG. 4): growth was relatively favorable
- average degree of damage (Arabidopsis thaliana; sanguinarine 20 ppm (0.002 mg per plant body)): less than 10%
- physiological disorders after administration (rats): disorders of particular note were not observed
